{"source": "patent US20080299130A1", "about": "“Methods And Compositions For The Treatment Of Ocular Neovascularization” (UNIVERSITY OF KENTUCKY RESEARCH FOUNDATION, priority 2004, published 2008)", "system": "laser-induced CNV", "assay": "Laser-induced choroidal neovascularization (CNV) volume after intravitreous injection", "type": "in vivo, mouse", "method": "Laser photocoagulation (532 nm, 200 mW, 100 ms, 75 μm; OcuLight GL, Iridex, Mountain View, Calif.) was performed on both eyes of each animal by a single individual masked to genetic identity. Laser spots (volume studies: 3/eye; angiography: 4/eye; protein analyses/flow cytometry: 12/eye) were applied in a standardized fashion around the optic nerve, using a slit lamp delivery system and a cover slip as a contact lens. The morphological endpoint of the laser injury was the appearance of a cavitation bubble, a sign thought to correlate with the disruption of Bruch's membrane.\nTwo weeks after laser injury, eyes were enucleated and fixed with 4% paraformaldehyde (PFA) for 30 minutes at 4° C. […]\nFlat mounts were examined with a scanning laser confocal microscope (TCS SP, Leica, Heidelberg, Germany). […] The area of CNV-related fluorescence was measured by computerized image analysis with the microscope software (TCS SP; Leica). […]\nBecause the probability of each laser lesion developing CNV is influenced by the group to which it belongs, the mouse, the eye, and the laser spot, the mean lesion volumes were compared using a linear mixed model with a split plot repeated measures design, as previously described (Sakurai, et al., (2003), Invest Opthalmol Vis Sci 44, 2743-2749; Sakurai et al., (2003), Invest Opthalmol Vis Sci 44, 3578.3585). […] Statistical significance was determined at the 0.05 level. […]", "data": [{"substance": "Recombinant MCP-1: recombinant mouse MCP-1 protein (Ccl-2)", "values": [{"measurement": "Effect on CNV", "setting": "MCP-1 knock out mice (FIG. 5, FIG. 6)", "value": "restores CNV"}, {"measurement": "CNV restored, % of control", "setting": "recombinant MCP-1 0.55 ng given with anti-VEGF-A antibody, n=6, P=0.82", "value": "95.7±13.0 % of control"}]}]}
